US20250011311A1, “AMIDO HETEROAROMATIC COMPOUNDS” (AstraZeneca AB, priority 2022, published 2025)

Assays:
human hepatocytes = experiment: Assay A: Metabolic Stability in Human Hepatocytes; type: in vitro ADME; details: cryopreserved human hepatocytes, 10^6 viable cells/mL, 1 μM compound, 37° C.
Method in brief: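 Cryopreserved hepatocytes (10^6 viable cells/mL) at 37° C with 1 μM test compound, sampled 0.5–120 min and quenched in MeCN. Parent measured by LC-MS/MS; CLint (μL/min/10^6 cells) from the slope of ln(parent concentration) vs time.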

[1] = molecular target: over expressed HSD17β13 in HEK293S cells (Homo sapiens (Human), UniProt Q7Z5P4); experiment: In Vitro 17bHSD13 Cell Assay; type: cell-based; details: HEK293S cells over expressing HSD17β13; estradiol to estrone conversion, 18 h, LC-MS/MS; read-out: 17bHSD1713 Cell assay IC50
Sequence of over expressed HSD17β13 in HEK293S cells (Q7Z5P4 20-300): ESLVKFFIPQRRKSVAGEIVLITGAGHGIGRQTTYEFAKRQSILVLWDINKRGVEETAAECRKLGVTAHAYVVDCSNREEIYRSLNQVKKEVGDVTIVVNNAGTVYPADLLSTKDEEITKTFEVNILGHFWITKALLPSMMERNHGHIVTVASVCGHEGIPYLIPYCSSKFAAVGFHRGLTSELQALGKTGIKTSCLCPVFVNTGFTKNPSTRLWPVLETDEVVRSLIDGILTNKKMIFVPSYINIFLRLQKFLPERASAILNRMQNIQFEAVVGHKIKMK
Method in brief: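 HEK293S cells overexpressing HSD17β13 convert estradiol to estrone; product read by LC-MS/MS (APCI, positive MRM) as AUC ratio estrone/(estrone+estradiol). Effect normalised between DMSO and maximal inhibition by a known inhibitor control; IC50 from curve fit.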

[2] = molecular target: over expressed HSD17β9 in HEK293S cells (Homo sapiens (Human), UniProt Q92781); experiment: In Vitro 17bHSD9 Cell Assay; type: cell-based; details: HEK293S cells over expressing HSD17β9; retinol to retinal conversion, 18 h, LC-MS/MS; read-out: 17bHSD9 Cell assay IC50
Sequence of over expressed HSD17β9 in HEK293S cells (Q92781 whole entry): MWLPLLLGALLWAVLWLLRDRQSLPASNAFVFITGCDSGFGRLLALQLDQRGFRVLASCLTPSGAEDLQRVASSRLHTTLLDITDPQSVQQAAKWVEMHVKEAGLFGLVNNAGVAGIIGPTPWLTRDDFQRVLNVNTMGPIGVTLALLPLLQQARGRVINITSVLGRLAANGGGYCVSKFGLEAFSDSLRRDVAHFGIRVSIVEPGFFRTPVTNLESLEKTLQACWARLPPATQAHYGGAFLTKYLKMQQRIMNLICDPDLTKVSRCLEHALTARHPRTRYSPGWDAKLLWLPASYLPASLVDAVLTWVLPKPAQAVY
Method in brief: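 HEK293S cells overexpressing HSD17β9 were plated at 10K cells/well in DMEM + 10% FBS and cultured 18 h. Retinol-to-retinal conversion in media was quantified by LC-MS/MS (MRM) as retinal/(retinal + retinol). IC50 was fitted after normalisation to DMSO and full inhibition by a reference inhibitor.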

CYP2C9 = CYP2C9 (Homo sapiens (Human), UniProt P11712); experiment: Assay B: Cytochrome P450 Inhibition 2C9
Sequence of CYP2C9 (P11712 whole entry): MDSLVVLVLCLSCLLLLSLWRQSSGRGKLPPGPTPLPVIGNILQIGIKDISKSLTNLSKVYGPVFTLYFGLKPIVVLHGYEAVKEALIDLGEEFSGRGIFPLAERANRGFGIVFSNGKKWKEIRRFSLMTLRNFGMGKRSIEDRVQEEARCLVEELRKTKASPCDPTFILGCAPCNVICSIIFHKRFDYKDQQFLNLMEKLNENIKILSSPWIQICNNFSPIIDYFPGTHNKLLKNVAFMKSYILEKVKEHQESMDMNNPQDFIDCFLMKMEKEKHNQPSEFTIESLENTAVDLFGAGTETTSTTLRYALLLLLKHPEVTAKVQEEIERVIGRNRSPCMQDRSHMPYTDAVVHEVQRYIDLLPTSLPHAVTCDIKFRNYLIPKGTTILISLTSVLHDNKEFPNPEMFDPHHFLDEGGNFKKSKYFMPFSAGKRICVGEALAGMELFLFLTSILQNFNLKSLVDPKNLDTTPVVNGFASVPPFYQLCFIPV

Compound	IC50 [1]	IC50 [2]	IC50 (CYP2C9)	Assay A: Human Heps Met Clint GMean CLint (μl/min/1E6) (human hepatocytes)
CC1CN(C(=O)c2noc(-c3cc(F)c(F)c(O)c3F)n2)CC(C)(C)O1 (stereo not drawn) [Example 117, (5-(2,4,5-Trifluoro-3-hydroxyphenyl)-1,2,4-oxadiazol-3-yl)(2,2,6-trimethylmorpholino)methanone]	90 nM	> 50 µM	4.9 µM	4.2 μl/min/1E6
O=C(c1noc(-c2cc(F)c(F)c(O)c2F)n1)N1CCOC2(CC2)C1 [Example 118, (4-Oxa-7-azaspiro[2.5]octan-7-yl)(5-(2,4,5-trifluoro-3-hydroxyphenyl)-1,2,4-oxadiazol-3-yl)methanone]	220 nM	> 50 µM	7.8 µM	4.6 μl/min/1E6
C[C@@H]1CN(C(=O)c2cnc(-c3cc(F)c(F)c(O)c3F)s2)C[C@H](C)O1 [Example 120, ((2R,6S)-2,6-Dimethylmorpholino)(2-(2,4,5-trifluoro-3-hydroxyphenyl)thiazol-5-yl)methanone]	140 nM	> 50 µM	12.8 µM	13.3 μl/min/1E6

Continued, in another order:

IC50 [1]	IC50 [2]	IC50 (CYP2C9)	Compound	Assay A: Human Heps Met Clint GMean CLint (μl/min/1E6) (human hepatocytes)
120 nM	15.8 µM	7.2 µM	O=C(c1noc(-c2cc(F)c(F)c(O)c2F)n1)N1CCO[C@@H]2CCC[C@H]21 [Example 114, ((4aR,7aR)-Hexahydrocyclopenta[b][1,4]oxazin-4(4aH)-yl)(5-(2,4,5-trifluoro-3-hydroxyphenyl)-1,2,4-oxadiazol-3-yl)methanone]	6.4 μl/min/1E6
100 nM	32.5 µM	9.8 µM	O=C(c1noc(-c2cc(F)c(F)c(O)c2F)n1)N1CCO[C@H]2CCC[C@@H]21 [Example 115, ((4aS,7aS)-Hexahydrocyclopenta[b][1,4]oxazin-4(4aH)-yl)(5-(2,4,5-trifluoro-3-hydroxyphenyl)-1,2,4-oxadiazol-3-yl)methanone]	6.2 μl/min/1E6
2750 nM	> 50 µM	12.3 µM	C[C@@H]1CN(C(=O)c2noc(-c3cc(F)c(F)c(O)c3F)n2)C[C@H](C)N1 [Example 119, ((3R,5S)-3,5-Dimethylpiperazin-1-yl)(5-(2,4,5-trifluoro-3-hydroxyphenyl)-1,2,4-oxadiazol-3-yl)methanone]	1.0 μl/min/1E6
